# Literature values, collected in PubChem BioAssay AID1259409 (Chemical Carcinogenesis Research Information System (CCRIS), 2018).
# System: rodent chemically induced tumor inhibition, incidence and multiplicity
# Assay: CCRIS tumor inhibitor studies
smiles,measurement,setting,value
CC(C)=CCOc1c2occc2cc2ccc(=O)oc12,"tumour outcome (control, treated, inhibition, significance)","Carcinogen: 7,12-DIMETHYLBENZ[A]ANTHRACENE, 57-97-6, Dose [Inhibitor]: 0, 400 NMOL 1/WK FOR 45 WK APPLIED 5 MIN PRIOR TO EACH CARCINOGEN DOSE (STUDY DURATION: 45 WK), Route [Inhibitor]: DERMAL, Species: MOUSE, Strain/Sex: SENCAR, Target Tissue: Type of Lesion: SKIN: PAPILLOMA, Dose [Carcinogen]: 50 NMOL 1/WK FOR 45 WK, Promoter: NONE USED","97%, 60%, 38%, p<0.05"
same,"tumour outcome (control, treated, inhibition, significance)","Carcinogen: 7,12-DIMETHYLBENZ[A]ANTHRACENE, 57-97-6, Dose [Inhibitor]: 0, 400 NMOL ONCE APPLIED 5 MIN PRIOR TO CARCINOGEN DOSE (STUDY DURATION: 25 WK), Route [Inhibitor]: DERMAL, Species: MOUSE, Strain/Sex: SENCAR, Target Tissue: Type of Lesion: SKIN: PAPILLOMA, Dose [Carcinogen]: 10 NMOL ONCE, Promoter: 12-O-TETRADECANOYLPHORBOL-13-ACETATE, 16561-29-8","93%, 93%, 0%, not significant"
same,"tumour outcome (control, treated, inhibition, significance)","Carcinogen: 7,12-DIMETHYLBENZ[A]ANTHRACENE, 57-97-6, Dose [Inhibitor]: 0, 800 NMOL ONCE APPLIED 5 MIN PRIOR TO CARCINOGEN DOSE (STUDY DURATION: 25 WK), Route [Inhibitor]: DERMAL, Species: MOUSE, Strain/Sex: SENCAR, Target Tissue: Type of Lesion: SKIN: PAPILLOMA, Dose [Carcinogen]: 200 NMOL ONCE, Promoter: 12-O-TETRADECANOYLPHORBOL-13-ACETATE, 16561-29-8","93%, 75%, 19%, not significant"
same,"tumour outcome (control, treated, inhibition, significance)","Carcinogen: 7-12-DIMETHYLBENZ[A]ANTHRACENE, 57-97-6, Dose [Inhibitor]: 0, 400 NMOL 1/WK FOR 45 WK APPLIED 5 MIN PRIOR TO EACH CARCINOGEN DOSE (STUDY DURATION: 45 WK), Route [Inhibitor]: DERMAL, Species: MOUSE, Strain/Sex: SENCAR, Target Tissue: Type of Lesion: SKIN: CARCINOMA, Dose [Carcinogen]: 50 NMOL 1/WK FOR 45 WK","90%, 53%, 41%, not calculated"
same,"tumour outcome (control, treated, inhibition, significance)","Carcinogen: 7-12-DIMETHYLBENZ[A]ANTHRACENE, 57-97-6, Dose [Inhibitor]: 0, 800 NMOL 1/WK FOR 45 WK APPLIED 5 MIN PRIOR TO EACH CARCINOGEN DOSE (STUDY DURATION: 45 WK), Route [Inhibitor]: DERMAL, Species: MOUSE, Strain/Sex: SENCAR, Target Tissue: Type of Lesion: SKIN: CARCINOMA, Dose [Carcinogen]: 50 NMOL 1/WK FOR 45 WK","90%, 37%, 59%, not calculated"
same,"tumour outcome (control, treated, inhibition, significance)","Carcinogen: 7-12-DIMETHYLBENZ[A]ANTHRACENE, 57-97-6, Dose [Inhibitor]: 0, 800 NMOL 1/WK FOR 45 WK APPLIED 5 MIN PRIOR TO EACH CARCINOGEN DOSE (STUDY DURATION: 45 WK), Route [Inhibitor]: DERMAL, Species: MOUSE, Strain/Sex: SENCAR, Target Tissue: Type of Lesion: SKIN: PAPILLOMA, Dose [Carcinogen]: 50 NMOL 1/WK FOR 45 WK","97%, 53%, 45%, p<0.05"
same,"tumour outcome (control, treated, inhibition, significance)","Carcinogen: BENZO[A]PYRENE, 50-32-8, Dose [Inhibitor]: 0, 800 NMOL ONCE APPLIED 5 MIN PRIOR TO CARCINOGEN DOSE (STUDY DURATION: 25 WK), Route [Inhibitor]: DERMAL, Species: MOUSE, Strain/Sex: SENCAR, Target Tissue: Type of Lesion: SKIN: PAPILLOMA, Dose [Carcinogen]: 200 NMOL ONCE, Promoter: 12-O-TETRADECANOYLPHORBOL-13-ACETATE, 16561-29-8","92%, 92%, 0%, not significant"
same,"tumour outcome (control, treated, inhibition, significance)","Carcinogen: BENZO[A]PYRENE, 50-32-8, Dose [Inhibitor]: 0, 1600 NMOL ONCE APPLIED 5 MIN PRIOR TO CARCINOGEN DOSE (STUDY DURATION: 25 WK), Route [Inhibitor]: DERMAL, Species: MOUSE, Strain/Sex: SENCAR, Target Tissue: Type of Lesion: SKIN: PAPILLOMA, Dose [Carcinogen]: 200 NMOL ONCE, Promoter: 12-O-TETRADECANOYLPHORBOL-13-ACETATE, 16561-29-8","92%, 85%, 8%, not significant"
O=C1COc2ccccc21,"tumour outcome (control, treated, inhibition, significance)","Carcinogen: BENZO[A]PYRENE, 50-32-8, Dose [Inhibitor]: 0.034 MMOL/G IN DIET FOR 5 WK BEGINNING 1 WK PRIOR TO CARCINOGEN TREATMENT (STUDY DURATION: 21 WK), Route [Inhibitor]: ORAL, Species: MOUSE, Strain/Sex: ICR/FEMALE, Target Tissue: Type of Lesion: FORESTOMACH: TUMOR, Dose [Carcinogen]: 1 MG IN 0.2 ML CORN OIL 2/WK FOR 4 WK, Promoter: NONE USED","95%, 89%, 6%, not significant"
CC(=O)Oc1c(C)c(C)c2c(c1C)CCC(C)(CCCC(C)CCCC(C)CCCC(C)C)O2 (configuration not stated),"tumour outcome (control, treated, inhibition, significance)","Carcinogen: 7,12-DIMETHYLBENZ[A]ANTHRACENE, 57-97-6, Dose [Inhibitor]: 1000 MG/KG IN 20% CORN OIL DIET DAILY STARTING 2 WK BEFORE CARCINOGEN TREATMENT AND CONTINUING FOR DURATION OF STUDY (ST, Route [Inhibitor]: ORAL, Species: RAT, Strain/Sex: SPRAGUE-DAWLEY/FEMALE, Target Tissue: Type of Lesion: MAMMARY GLAND: ADENOCARCINOMA, Dose [Carcinogen]: 10 MG ONCE AT AGE 50 D","28/30 (93%), 27/30 (90%), 3%, not significant"
same,"tumour outcome (control, treated, inhibition, significance)","Carcinogen: UV-B IRRADIATION, Dose [Inhibitor]: 25, 100 UG/KG IN DIET FOR DURATION OF STUDY BEGINNING 3 WK PRIOR TO IRRADIATION (STUDY DURATION: 40 WK), Route [Inhibitor]: ORAL, Species: MOUSE, Strain/Sex: C3H/HEN/FEMALE, Target Tissue: Type of Lesion: SKIN: TUMOR, Dose [Carcinogen]: 6.4 J/M2/SEC 30 MIN/D 5 D/WK FOR 13 WK , IRRADIATION DISCONTINUED FOR 3 WK DUE TO TOXICITY THEN IT WAS RESUMED FOR 2 WK, Promoter: NONE USED","67%, 46%, 31%, not calculated"
same,"tumour outcome (control, treated, inhibition, significance)","Carcinogen: UV-B IRRADIATION, Dose [Inhibitor]: 25, 200 UG/KG IN DIET FOR DURATION OF STUDY BEGINNING 3 WK PRIOR TO IRRADIATION (STUDY DURATION: 40 WK), Route [Inhibitor]: ORAL, Species: MOUSE, Strain/Sex: C3H/HEN/FEMALE, Target Tissue: Type of Lesion: SKIN: TUMOR, Dose [Carcinogen]: 6.4 J/M2/SEC 30 MIN/D 5 D/WK FOR 13 WK, IRRADIATION DISCONTINUED FOR 3 WK DUE TO TOXICITY THEN IT WAS RESUMED FOR 2 WK, Promoter: NONE USED","67%, 19%, 72%, not calculated"
